Patent US20200239597A1, “AN ANTI-APOPTOTIC FUNCTION OF PKM2 AND INTRACELLULARLY EXPRESSED SCFV ANTIBODIES” (La Jolla Institute for Allergy and Immunology, priority 2017, published 2020)

Experiments:
[1] = tested on: 293T cells; experiment: Clonogenic survival assay after BimS transfection, 293T cells; format: cell-based, human; set-up: protection of cells from BimS-induced death by the compound alone: dose or concentration left out as unconfirmed; conditions: DASA-58 not shown; for effect on the pro-survival effect of IB5 expression: 293T cells cultured in the presence of the compound; for protection of cells from BimS-induced death by the compound alone: without IB5
Description: Control 293T or IB5-expressing cells were incubated with or without 27 µg/ml TEPP-46 for 3 h, then transfected with BimS cDNA in a further 24-h incubation also including TEPP-46 or vehicle. The plates were fixed and stained with crystal violet after 1 week. The total area of colonies (a measure of the total mass of proliferating cells) formed in each well from were quantified using ImageJ software; mean±SEM are shown from 3 independent experiments.
Cell viability was measured with a Countess™ Automated Cell Counter (Invitrogen) using trypan blue. For the clonogenic survival assay, 293T or MEFs cells were seeded in 6-well plates at 1×10^5 cells/well in a 2-ml volume, transfected with BimS cDNA and incubated for 24 h. Afterwards, the medium was replaced and the cells cultured for 3-4 days. Thereafter, the plates were rinsed with PBS and fixed and stained with a solution containing crystal violet (0.5% w/v) and glutaraldehyde (6% v/v) as described (Franken et al., 2006).

[2] = tested on: Bcl-2 family proteins; experiment: Immunoblots of Bcl-2 family proteins; format: cell-based, human; conditions: alone or in combination; TEPP-46 27 μM
Description: Levels of several Bcl-2 family proteins were unchanged following IB5 expression or incubation with TEPP-46, or both. Cell lysates from 293T cells infected with and without IB5 and incubated with and without TEPP-46 (27 μM) were separated on SDS-12% polyacrylamide gels. Bcl-2 family proteins were detected by immunoblotting. The bands were quantified using ImageJ and normalized to the control cell lysate on the leftmost lane.
293T cells were washed with PBS and lysed with PBS containing 1% NP-40. Protein concentration was determined using Pierce™ BCA reagent (ThermoFisher; 23221, 23224). 35 μg protein was loaded in each lane of 12% SDS-PAGE gels. Proteins were transferred to nitrocellulose membrane and immunoblotted with the following primary antibodies: anti-Bax antibody (Santa Cruz N20), anti-Bak antibody (Cell Signaling 3814), anti-Bid antibody (R&D Systems AF860), anti-Bim antibody (Sigma B7929), anti-Puma antibody (Cell Signaling 4976), anti-Bcl-2 antibody (Abcam 32124), anti-Bcl-xL antibody (Cell Signaling 2764) and anti-Mcl-1 (Santa Cruz S19) at 1:1000 dilution. The secondary anti-rabbit and mouse antibodies, conjugated with HRP, were obtained from Santa Cruz and were used at 1:2000 dilution. The luminescence signal was detected using ECL reagent (ThermoFisher 32106).

[3] = biological target: T1, WT PKM2 (Homo sapiens, UniProt P14618); experiment: Pyruvate kinase assay (Kinase-Glo Plus), WT PKM2; format: biochemical; conditions: PKM2 at 50 nM; ADP and PEP as substrates
T1 construct: His (N); made in house; host or cells: Escherichia coli BL21(DE3)
T1 sequence (P14618 whole entry): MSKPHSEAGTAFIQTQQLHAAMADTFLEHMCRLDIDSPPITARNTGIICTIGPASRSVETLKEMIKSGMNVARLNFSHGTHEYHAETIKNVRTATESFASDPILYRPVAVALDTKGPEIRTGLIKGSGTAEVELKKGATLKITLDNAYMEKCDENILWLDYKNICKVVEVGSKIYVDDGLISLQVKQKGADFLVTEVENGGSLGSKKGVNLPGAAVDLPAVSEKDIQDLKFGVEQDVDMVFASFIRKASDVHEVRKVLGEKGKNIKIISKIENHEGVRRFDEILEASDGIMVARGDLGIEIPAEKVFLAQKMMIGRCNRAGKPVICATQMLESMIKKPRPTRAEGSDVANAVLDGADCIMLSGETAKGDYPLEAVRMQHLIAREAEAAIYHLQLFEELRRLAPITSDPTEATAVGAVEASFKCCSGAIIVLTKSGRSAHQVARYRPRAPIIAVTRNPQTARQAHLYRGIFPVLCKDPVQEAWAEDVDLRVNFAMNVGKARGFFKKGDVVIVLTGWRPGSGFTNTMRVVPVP
Description: Activity was measured by Kinase-Glo® Plus Luminescent Kinase Assay kit (promega), using ADP and PEP as substrates), with PKM2 at 50 nM. Shown are values with the basal activity of PKM2 alone subtracted out.
Pyruvate kinase activity was measured by using Kinase-Glo® Plus Luminescent Kinase Assay kit (Promega). 50-100 nM of purified WT or mutant PKM2 was added in 100 μl assay buffer containing 50 mM Tris pH7.5, 100 mM KCl, 10 mM MgCl2, 200 μM PEP, 200 μM ADP, and 3% DMSO. After a 15-min incubation, Kinase-Glo Plus™ reagent (Promega Corporation, Madison, Wis., USA) was added, according to the manufacturer's instructions. In some cases, 0-40 μM fructose 1,6-bisphosphate (FBP) and 0-150 nM scFv 5 were added.

[4] = biological target: T2, PKM2 (K270M) (Homo sapiens, UniProt P14618, K270M); experiment: Blue native gel electrophoresis, PKM2 (K270M); format: binding; conditions: not shown
T2 construct: His (N); made in house; host or cells: Escherichia coli BL21(DE3)
T2 sequence (P14618 whole entry K270M): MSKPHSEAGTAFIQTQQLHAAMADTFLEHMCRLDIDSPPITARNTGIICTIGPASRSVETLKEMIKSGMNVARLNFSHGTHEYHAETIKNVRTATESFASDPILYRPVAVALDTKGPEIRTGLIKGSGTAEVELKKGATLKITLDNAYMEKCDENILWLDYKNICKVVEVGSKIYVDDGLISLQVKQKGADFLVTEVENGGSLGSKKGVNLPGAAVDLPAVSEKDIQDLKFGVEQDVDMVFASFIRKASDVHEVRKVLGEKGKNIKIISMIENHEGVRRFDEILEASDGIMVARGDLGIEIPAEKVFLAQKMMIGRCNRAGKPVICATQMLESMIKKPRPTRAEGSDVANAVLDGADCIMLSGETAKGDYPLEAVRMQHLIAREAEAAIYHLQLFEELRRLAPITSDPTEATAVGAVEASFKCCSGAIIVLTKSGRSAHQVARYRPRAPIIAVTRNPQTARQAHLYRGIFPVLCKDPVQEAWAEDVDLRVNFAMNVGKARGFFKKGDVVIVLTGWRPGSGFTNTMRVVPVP
Text: To begin to define the aspects of PKM2 function required for the IB5-induced anti-apoptotic effect, the present inventors reconstituted PKM2-null MEFs with WT or mutant forms of PKM2. The present inventors first analyzed the K270M mutation, reported to be catalytically dead (Bollenbach et al., 1999; Dombrauckas et al., 2005; Luo et al., 2011).

[5] = biological target: T1, WT PKM2; experiment: Blue native gel electrophoresis of recombinant proteins, WT PKM2; format: binding; conditions: blue native gel
Description: Left: A monovalent form of scFv 5, produced in E. coli, induced tetramer formation in WT PKM2 along with a bandshift whose magnitude was dependent on the input amount of scFv 5. […] Reaction volume was 20 μl.
(§1) Because glucose metabolism can influence cell survival (Fulda and Debatin, 2007; Moley and Mueckler, 2000; Munoz-Pinedo et al., 2012), The present inventors asked whether IB5 could rescue cells simply through stimulating PKM2's glycolytic activity. First, to analyze the antibody's interaction with PKM2, the present inventors produced monovalent scFv 5 and PIKM2 as recombinant proteins in E. coli and analyzed mixtures of these proteins, by blue native gel electrophoresis (FIG. 3A).

[6] = biological target: T3, pyruvate kinase M2 (PKM2) (Homo sapiens, UniProt P14618); experiment: Target protein immunoprecipitation (FLAG pull-down, mass spectrometry, immunoblot); format: binding; conditions: Triton X-100 extracts of 293T cells, anti-FLAG beads
T3 construct: some intrabodies precipitated specific cellular proteins; endogenous in cells; host or cells: HEK293T (293T)
T3 sequence (P14618 whole entry): as the sequence (P14618 whole entry) above
Description: FIG. 1 C is a photograph of a non-limiting SDS-PAGE gel with silver stain from an immunoprecipitation assay using antibodies encoded by DNA sequences isolated from FIG. 1B. […] Intrabodies that rescued cells from BimS-induced death were chosen for pull-down analysis as described in Methods. Left panel: Triton™-X-100 (1%) cell extracts were incubated with anti-FLAG beads, then proteins eluted with 3×FLAG peptide and separated by SDS-PAGE with silver stain. Specific bands are marked with dots; some bands (e.g. at 37 and 70 kD) are nonspecific. […] The bands near 25 kD are the scFv polypeptides, whose expression levels varied.
Flag-tagged intrabody was introduced along with a tandem Strep-tag by PCR into the same lentiviral vector used for selection. 293T cells infected with the intrabody lentivirus were incubated at 30° C. for 72 h as described above. After washing with cold PBS, 5×10^8 cells were lysed for 15 minutes on ice in lysis buffer (50 mM Tris HCl, pH 7.4, 150 mM NaCl, 1 mM EDTA, 1% Triton™ X-100). Cell lysates were clarified by centrifugation for 15 minutes at 4° C. at 16,000×g. The total protein content of the soluble fraction was quantified using the BCA assay. For pull-down experiments, 10 mg of protein lysate was incubated with 200 al of EZview™ Red anti-FLAG® M2 Affini-ty Gel (Sigma-Aldrich) for 2 h at 4° C. Beads were washed 3 times in wash buffer (50 mM Tris HCl, pH 7.4, 150 mM NaCl, 1 mM EDTA, 0.1% Triton X-100). Elution was performed under native conditions by competition with 3×FLAG peptide following the manufacturer's protocol. Eluates were used for the second step purification using Strep-Tactin Superflow Plus™ [Qiagen], following the manufacturer's instructions. The final two-step purified protein was used for SDS-PAGE analysis. Bands of interest were cut out from the gel and subjected to in-gel digestion with trypsin (Promega, Fitchburg, Wis., USA) followed by MALDI TOF/TOF mass spectrometry analysis (Biomolecular and Proteomics Mass Spectrometry Facility, University of California at San Diego).

[7] = biological target: T4, recombinant PKM1 (UniProt P14618-2 1-531); experiment: in vitro experiments with recombinant proteins (blue native gel bandshift; scFv 5 failed to shift PKM1)
T4 construct: Ran as a constitutive tetramer; also called PIKM1; M1 isoform of pyruvate kinase
T4 sequence (P14618 other isoform, or with tags, fused parts or gaps): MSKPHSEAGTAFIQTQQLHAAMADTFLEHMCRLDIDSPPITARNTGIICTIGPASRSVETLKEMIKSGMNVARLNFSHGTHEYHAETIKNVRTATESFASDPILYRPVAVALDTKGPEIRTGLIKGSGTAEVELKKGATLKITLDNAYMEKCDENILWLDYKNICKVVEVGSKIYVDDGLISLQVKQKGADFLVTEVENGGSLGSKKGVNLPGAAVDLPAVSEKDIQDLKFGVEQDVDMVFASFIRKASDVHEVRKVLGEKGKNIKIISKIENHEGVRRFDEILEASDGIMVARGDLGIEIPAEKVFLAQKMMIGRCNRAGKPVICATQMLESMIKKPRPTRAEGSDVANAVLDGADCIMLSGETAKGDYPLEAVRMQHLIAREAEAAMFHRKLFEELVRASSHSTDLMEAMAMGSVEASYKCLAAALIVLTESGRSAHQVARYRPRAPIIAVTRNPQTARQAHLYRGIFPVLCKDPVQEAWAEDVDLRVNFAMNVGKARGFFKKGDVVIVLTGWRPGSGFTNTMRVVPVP
Text: as §1, with “3A). […] Thus, the intrabody bound directly to PKM2, promoting its stable tetramerization, and moreover, higher input ratios of scFv:PKIM2 produced increased binding stoichiometry.” for “3A).”

| Molecule | effect on the pro-survival effect of IB5 expression [1] | protection of cells from BimS-induced death by the compound alone [1] | protein pulled down from cell extracts [6] | further results |
| --- | --- | --- | --- | --- |
| Nc1cccc(S(=O)(=O)N2CCCN(S(=O)(=O)c3ccc4c(c3)OCCO4)CC2)c1 [DASA-58] | enhanced the pro-survival effect of IB5 expression to a modest but statistically significant extent | did not protect cells | – | – |
| Cn1c2cc([S+](C)[O-])sc2c2cnn(Cc3cccc(N)c3)c(=O)c21 (centres unmarked) [TEPP-46] | enhanced the pro-survival effect of IB5 expression to a modest but statistically significant extent | did not protect cells | – | levels of Bax, Bak, Bid, Bim, Puma, Bcl-2, Bcl-xL and Mcl-1 [2]: failed to change the mitochondrial levels |
| O=C(COP(=O)(O)O)[C@@H](O)[C@H](O)[C@H](O)COP(=O)(O)O [FBP, fructose 1,6-bisphosphate, reference compound] | – | – | – | glycolytic (pyruvate kinase) activity of WT PKM2 [3]: Stimulation of PKM2 activity; stable tetramer formation of PKM2 (K270M) [4]: prevented the protein from forming stable tetramers; tetramer formation of WT PKM2 [5]: produced the tetramer form |
| IB12: intrabody clone (scFv) that pulls down PKM2, SEQ ID NO: 1 (protein, Artificial intrabody clone 12) scFv: MAQVQLVQSGGGLVKPGGSLRLSCTASGFTFSTYWMHWFRQAPGKGLLWVSRINPDGSATIYADSVKGRFTISRDNAKNSLYLQMNSLRDEDTAVYYCARGHPLSGYPGYFDYWGQGTLVTVSSGGGGSGGGGSGVADPRLCSLSRLPSLHLLEHQQSHLHFTSGINVGAYRIYWYQQKPGSPPQFLLRYKSDSDKQQGSGVPSRFSGSRDASANAGILLISGLRSEDEADYYCAIWHSSAWVFGGGTKLTVLWGSGLASVDYKDDDDK | – | – | pulled down a 55-kD protein now identified as pyruvate kinase M2 | – |
| monovalent scFv 5 produced as recombinant protein in E. coli (scFv, also called purified scFv 5; recombinant scFv 5) scFv: MAQVQLVETGPGLVKPSETLSLRCTVSGGSFDNYYWNWIRQPPGKGLEYIGYVFPSTGATNYNPSLGSRVTISLDTSKNQFSLTLTSVTTADTAIYYCVRSGHDLWTGSTWFDPWGQWTTVTVSSGGGGSGGGGSGGGGSEIVLTQSPGTLSLSPGERATLSCRASQSVSSSYLAWYQQKPGQAPRLLIYGASSRATGIPDRFSGSGSGTDFTLTISRLEPEDIAVYYCQQRSNWPRTFGQGTKVEIKRGLGGLASVDYKDDDDK | – | – | – | binding result [7]: no binding |
| Clone 7: independent scFv isolate with DNA sequence identical to scFv 5 (protein) scFv: MAQVQLVETGPGLVKPSETLSLRCTVSGGSFDNYYWNWIRQPPGKGLEYIGYVFPSTGATNYNPSLGSRVTISLDTSKNQFSLTLTSVTTADTAIYYCVRSGHDLWTGSTWFDPWGQWTTVTVSSGGGGSGGGGSGGGGSEIVLTQSPGTLSLSPGERATLSCRASQSVSSSYLAWYQQKPGQAPRLLIYGASSRATGIPDRFSGSGSGTDFTLTISRLEPEDIAVYYCQQRSNWPRTFGQGTKVEIKRGLGGLASVDYKDDDDK | – | – | pulled down a 55-kD protein now identified as pyruvate kinase M2 | – |
